Measured values from EPA's ToxValDB 9.5.
“And” between values parts separate entries of the source, which are not always exact repeats. Equal entries are not always repeated.

Key:
Rattus norvegicus [1] = details: oral
Mus musculus [2] = details: M/F
Rattus norvegicus [3] = details: oral; remark: listed apart in the source
Rattus norvegicus [4] = details: oral; remark: listed apart in the source
Rattus norvegicus [5] = details: Hershberger, oral, gavage
Mus musculus [6] = details: oral, gavage, B6C3F1
Rattus norvegicus [7] = details: oral, gavage, Fischer 344
Rattus norvegicus [8] = details: oral; remark: listed apart in the source
Rattus norvegicus [9] = system: Rattus norvegicus
Canidae = details: chronic; duration: 1 years; oral; diet; M/F; Dog Other; gastric mucosal irritation
[10] = chronic, duration: 2 years, diet, M/F, Crl:CD(SD), reduced weight gain
[11] = developmental, duration: 2 years, diet, M/F, reduced body weight gain, reduced pup weight and parental food consumption
[12] = developmental, M/F, reduced pup weight and parental food consumption
[13] = duration: 10 days, Sprague-Dawley, active + Negative + Antiandrogenic + anti-androgenic + significant decrease in serum testosterone at 800 (49% decrease at 400 NS) / …
[14] = subchronic, M/F, reduced mean terminal body weight (males)
[15] = subchronic, gavage, M, Induction of hepatic enzymes + liver histopathology
[16] = subchronic, M/F, reduced body weight
[17] = subchronic, M/F, reduced rbc and plasma cholinesterase activity
[18] = subchronic, duration: 90 days, M/F, reduced body weight and neurotoxicity

CN[C@@H]1[C@H](O[C@H]2[C@H](O[C@H]3[C@H](O)[C@@H](O)[C@H](N=C(N)N)[C@@H](O)[C@@H]3N=C(N)N)O[C@@H](C)[C@]2(O)CO)O[C@@H](CO)[C@H](O)[C@H]1O [Dihydrostreptomycin]
LOEL (Rattus norvegicus [1]; [10]): 10 mg/kg-day
NOEL (Rattus norvegicus [1]; [10]): 5 mg/kg-day

CC[n+]1c(-c2ccccc2)c2cc(N=NNc3cccc(C(=N)N)c3)ccc2c2ccc(N)cc21 [Isometamidium]
NOAEL (Rattus norvegicus [1]; subchronic, duration: 13 weeks, gavage, M/F, Crl:CD(SD) BR): 50 mg/kg-day

CCOC(=O)C(C)OC(=O)c1cc(Oc2ccc(C(F)(F)F)cc2Cl)ccc1[N+](=O)[O-] (stereo not given) [Lactofen]
LEL (Mus musculus [2]; chronic, duration: 78 weeks, oral, hepatocytomegaly in males + Increased absolute and relative liver weight): 1.5 mg/kg-day

O=C(NC(=O)c1c(F)cccc1F)Nc1cc(Cl)c(OC(F)(F)C(F)C(F)(F)F)cc1Cl (stereo not given) [Lufenuron]
NOAEL (Rattus norvegicus [1]; chronic, duration: 2 years, Tonic-clonic seizures, histopathological effects on lungs, liver, non-glandular stomach, intestines and urinary tract.): 1.93 mg/kg-day

O=c1ccc(=O)[nH][nH]1 [Maleic hydrazide]
LEL (Rattus norvegicus [3]; chronic, duration: 2 years, diet, M/F, renal dysfunction): 500 mg/kg-day
LOAEL (Rattus norvegicus [4]; chronic, duration: 28 months, diet, Kidney: Altered function): 500 mg/kg-day

CCc1cccc(C)c1N(C(=O)CCl)C(C)COC (stereo not given) [Metolachlor]
LEL (Rattus norvegicus [3]; [11]): 150 mg/kg-day
NOEL (Rattus norvegicus [3]; [11]): 15 mg/kg-day
LEL (Rattus norvegicus [3]; [12]): 50 mg/kg-day
NOEL (Rattus norvegicus [3]; [12]): 15 mg/kg-day
LOEL (Rattus norvegicus [5]; [13]): 800 mg/kg-day and 500 mg/kg-day
NOEL (Rattus norvegicus [5]; [13]): 400 mg/kg-day and 300 mg/kg-day
NOAEL (Rattus norvegicus [4]; chronic, duration: 2 years, diet, Whole body: Decreased weight gain): 23.4 mg/kg-day

CN(C)c1ccccc1 [N,N-Dimethylaniline]
LOAEL (Mus musculus [6]; short-term, duration: 15 days): 188 mg/kg-day
NOAEL (Mus musculus [6]; short-term, duration: 15 days): 93.8 mg/kg-day
LOAEL (Mus musculus [6]; subchronic, duration: 13 weeks): 62.5 mg/kg-day
NOAEL (Mus musculus [6]; subchronic, duration: 13 weeks): 31.2 mg/kg-day
NOAEL (Rattus norvegicus [7]; short-term, duration: 14 days): 93.8 mg/kg-day
NOAEL (Rattus norvegicus [7]; subchronic, duration: 13 weeks): 31.2 mg/kg-day
NOEL (Rattus norvegicus [8]; subchronic, duration: 13 weeks, gavage, M/F, Fischer 344, Body Weight Changes: decrease + Histopathology: Spleen-Hematopoiesis, extramedullary Spleen-Hemosiderosis Kidney-Pigmentation Liver-…): < 31 mg/kg-day
NOEL (Rattus norvegicus [8]; subchronic, gavage, M, Sprague-Dawley, Clinical Observation: Dark-red discoloration of skin R + Functional Observational Battery: Dark-red discoloration of skin R + Hematology: …): 1 mg/kg-day
LOAEL (Mus musculus [2]; subchronic, oral, gavage, splenomegaly, increased splenic hemosiderosis and hematopoiesis): 31.2 mg/kg-day

c1ccc2ccccc2c1 [Naphthalene]
LOAEL (Mus musculus [2]; chronic, inhalation, nasal effects: hyperplasia and metaplasia in respiratory and olfactory epithelium, respectively): 52.4 mg/m3
LOAEL (Rattus norvegicus [3]; [14]): 200 mg/kg-day
NOAEL (Rattus norvegicus [3]; [14]): 100 mg/kg-day
LOAEL (Rattus norvegicus [9]; chronic, duration: 105 weeks, inhalation, M/F, Fischer 344, respiratory): 52.4 mg/m3
LOAEL (Rattus norvegicus [9]; reproduction developmental, duration: 9 days, oral, gavage, F, Sprague-Dawley, neurological): 50 mg/kg-day

[Ni] [Nickel]
NOAEL (Rattus norvegicus [9]; chronic, duration: 2 years, inhalation, M/F, Fischer 344, respiratory): 0.03 mg/m3
NOAEL (Rattus norvegicus [9]; subchronic, duration: 13 weeks, inhalation, M/F, Fischer 344, respiratory): 0.06 mg/m3
NOAEL (Rattus norvegicus [4]; chronic, duration: 2 years, diet, Organs, major: Decreased organ weight + Whole body: Decreased body weight): 7.8 mg/kg-day

Brc1cc(Oc2cc(Br)c(Br)c(Br)c2Br)c(Br)c(Br)c1Br [Octabromodiphenyl ether]
LOAEL (Rattus norvegicus [3]; [15]): 5 mg/kg-day
NOAEL (Rattus norvegicus [3]; [15]): 2.51 mg/kg-day
NOAEL (Rattus norvegicus [9]; subchronic, duration: 13 weeks, inhalation, nose only, M/F, Crl:CD(SD) BR, endocrine): 1.1 mg/m3
NOAEL (Rattus norvegicus [4]; subchronic, duration: 90 days, gavage, Liver: Histological changes): 2.5 mg/kg-day

CCCC1COC(Cn2cncn2)(c2ccc(Cl)cc2Cl)O1 (stereo not given) [Propiconazole]
LEL (Canidae): 6.25 mg/kg-day
NOEL (Canidae): 1.25 mg/kg-day
NOEL (Rattus norvegicus [5]; duration: 7 days, Wistar, Neither + effect on AGD in 2500mg/kg at birth / significant increase in testis wt at PND 50 in 500 and 2500 mg/kg but not at PND 92 or …): 2500 mg/kg-day

CCN(CC)C(=S)[S-].[Na+] [Sodium diethyldithiocarbamate]
LOAEL (Rattus norvegicus [3]; chronic, M/F, Reduced body weight and cataracts in females): 62.5 mg/kg-day
LOAEL (Rattus norvegicus [3]; [16]): 100 mg/kg-day
NOEL (Rattus norvegicus [3]; [16]): 30 mg/kg-day
NOEL (Rattus norvegicus [4]; subchronic, duration: 90 days, Eye: Cataracts + Whole body: Decreased weight): 30 mg/kg-day

CCOP(=S)(OCC)OP(=S)(OCC)OCC [Sulfotepp]
LEL (Rattus norvegicus [3]; [17]): 1 mg/kg-day
NOEL (Rattus norvegicus [3]; [17]): 0.5 mg/kg-day
NOEL (Rattus norvegicus [4]; subchronic, duration: 3 months, diet, Blood: Decreased cholinesterase activity + Erythrocytes: Decreased cholinesterase activity): 0.5 mg/kg-day

Cc1cccc(O)c1 [m-Cresol]
NOAEL (Rattus norvegicus [8]; short-term, duration: 28 days, diet, M/F, Fischer 344, Body Weight Changes: Mean body weight decrease, Body weight gain decrease + Food Consumption: decrease + Absolute Organ Weight: Brain …): 3000 ppm
NOAEL (Rattus norvegicus [8]; subchronic, duration: 13 weeks, gavage, M/F, Sprague-Dawley, Deaths + Clinical Observation: Lethargy Tremors Hunched posture Rough hair coats + Body Weight Changes: Mean body weight decrease, Body …): 50 mg/kg-day
LOAEL (Rattus norvegicus [3]; [18]): 150 mg/kg-day
NOAEL (Rattus norvegicus [3]; [18]): 50 mg/kg-day
NOAEL (Rattus norvegicus [4]; subchronic, duration: 90 days, gavage, Nervous system: Neurotoxicity + Whole body: Decreased weight gain): 50 mg/kg-day
